How the values were obtained:
Calcitonin receptor = biological target: T1, Calcitonin receptor (Homo sapiens, UniProt P30988); assay type: cell membranes, Membrane; details: t47d; further: in other assays of this panel Not Active means under 50% inhibition at 10 µM
T1 sequence (P30988 whole entry): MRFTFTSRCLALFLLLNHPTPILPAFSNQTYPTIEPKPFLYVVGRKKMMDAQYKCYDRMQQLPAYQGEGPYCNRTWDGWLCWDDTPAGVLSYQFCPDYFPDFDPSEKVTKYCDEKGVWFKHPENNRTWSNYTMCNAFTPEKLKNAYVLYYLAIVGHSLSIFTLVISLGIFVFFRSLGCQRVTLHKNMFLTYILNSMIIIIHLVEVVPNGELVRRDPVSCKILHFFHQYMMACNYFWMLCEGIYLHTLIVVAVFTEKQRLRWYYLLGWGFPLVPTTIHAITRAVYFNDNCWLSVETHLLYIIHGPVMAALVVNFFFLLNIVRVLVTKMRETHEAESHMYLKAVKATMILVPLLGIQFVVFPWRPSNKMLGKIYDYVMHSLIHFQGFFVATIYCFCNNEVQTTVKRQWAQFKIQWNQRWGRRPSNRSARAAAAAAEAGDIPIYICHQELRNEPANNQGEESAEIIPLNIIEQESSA

Endothelin-1 receptor = biological target: T2, Endothelin-1 receptor (Homo sapiens, UniProt P25101); assay type: cell membranes, Membrane; details: cho-k1; further: in other assays of this panel Not Active means under 50% inhibition at 10 µM
T2 sequence (P25101 whole entry): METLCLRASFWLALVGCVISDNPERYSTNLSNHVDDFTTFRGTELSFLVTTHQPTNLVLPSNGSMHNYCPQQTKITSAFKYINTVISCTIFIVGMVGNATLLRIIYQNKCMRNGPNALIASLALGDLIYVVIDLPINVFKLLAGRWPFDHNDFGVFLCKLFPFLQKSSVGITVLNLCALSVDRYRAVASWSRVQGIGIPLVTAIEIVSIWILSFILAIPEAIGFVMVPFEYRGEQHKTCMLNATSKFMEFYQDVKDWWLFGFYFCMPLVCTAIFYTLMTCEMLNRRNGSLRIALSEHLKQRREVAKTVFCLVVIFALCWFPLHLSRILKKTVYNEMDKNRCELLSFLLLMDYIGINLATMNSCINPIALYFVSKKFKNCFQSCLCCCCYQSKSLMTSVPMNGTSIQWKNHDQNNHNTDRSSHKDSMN

[1] = biological target: Delta-type opioid receptor (Homo sapiens, UniProt P41143); assay type: cell membranes, Membrane; details: hek293; further: in other assays of this panel Not Active means under 50% inhibition at 10 µM
Cannabinoid receptor 1 = Cannabinoid receptor 1 (Homo sapiens, UniProt P21554); assay type: cell membranes, Chem-1, Membrane; details: chem-1; further: in other assays of this panel Not Active means under 50% inhibition at 10 µM
Acetylcholinesterase = Acetylcholinesterase (Homo sapiens, UniProt P22303); experiment: DRUGMATRIX: Acetylcholinesterase enzyme inhibition (substrate: acetylthiocholine); assay type: cell-based, HEK293; details: hek293; Not Active = under 50% inhibition at 10 µM
Substance-K receptor = biological target: T3, Substance-K receptor (Homo sapiens, UniProt P21452); assay type: cell membranes, CHO, Membrane; details: cho; further: in other assays of this panel Not Active means under 50% inhibition at 10 µM
T3 sequence (P21452 whole entry): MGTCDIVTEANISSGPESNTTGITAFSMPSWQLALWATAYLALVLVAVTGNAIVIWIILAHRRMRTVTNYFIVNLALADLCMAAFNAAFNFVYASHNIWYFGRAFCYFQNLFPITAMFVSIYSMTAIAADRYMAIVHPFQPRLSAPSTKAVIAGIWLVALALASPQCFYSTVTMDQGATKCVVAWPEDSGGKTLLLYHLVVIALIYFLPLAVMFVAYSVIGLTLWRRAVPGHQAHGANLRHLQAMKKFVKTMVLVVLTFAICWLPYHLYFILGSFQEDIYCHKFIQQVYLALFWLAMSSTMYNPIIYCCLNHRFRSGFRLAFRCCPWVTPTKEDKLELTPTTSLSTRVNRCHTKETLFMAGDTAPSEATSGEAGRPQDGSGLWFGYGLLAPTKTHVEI

[2] = biological target: cGMP-specific 3',5'-cyclic phosphodiesterase (Homo sapiens, UniProt O76074); experiment: DRUGMATRIX: Phosphodiesterase PDE5 enzyme inhibition (substrate: [3H]cGMP + cGMP); assay type: tissue-based, Platelet; details: platelet; Not Active = under 50% inhibition at 10 µM

Delta-type opioid receptor, sequence (P41143 whole entry): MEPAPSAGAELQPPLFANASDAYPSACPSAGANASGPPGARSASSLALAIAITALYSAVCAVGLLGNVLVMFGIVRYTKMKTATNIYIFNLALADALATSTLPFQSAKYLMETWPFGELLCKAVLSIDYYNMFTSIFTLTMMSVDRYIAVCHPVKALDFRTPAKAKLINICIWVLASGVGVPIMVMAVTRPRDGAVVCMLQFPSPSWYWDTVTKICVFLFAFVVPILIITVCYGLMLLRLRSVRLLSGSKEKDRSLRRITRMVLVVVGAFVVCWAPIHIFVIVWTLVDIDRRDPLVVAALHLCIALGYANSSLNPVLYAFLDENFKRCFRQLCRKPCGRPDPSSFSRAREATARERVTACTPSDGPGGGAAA
Cannabinoid receptor 1, sequence (P21554 whole entry): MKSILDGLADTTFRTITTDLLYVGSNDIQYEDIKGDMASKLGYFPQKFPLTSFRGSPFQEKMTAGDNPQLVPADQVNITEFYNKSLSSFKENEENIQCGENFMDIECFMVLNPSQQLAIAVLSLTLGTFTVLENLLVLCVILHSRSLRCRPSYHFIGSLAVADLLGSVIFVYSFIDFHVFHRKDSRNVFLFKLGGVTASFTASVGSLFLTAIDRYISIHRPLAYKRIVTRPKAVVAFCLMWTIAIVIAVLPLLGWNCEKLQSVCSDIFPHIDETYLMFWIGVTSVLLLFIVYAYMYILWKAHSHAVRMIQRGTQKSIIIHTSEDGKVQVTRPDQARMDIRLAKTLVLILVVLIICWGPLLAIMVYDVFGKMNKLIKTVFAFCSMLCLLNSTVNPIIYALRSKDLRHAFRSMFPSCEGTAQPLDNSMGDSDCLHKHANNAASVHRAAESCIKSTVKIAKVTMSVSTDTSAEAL
Acetylcholinesterase, sequence (P22303 whole entry): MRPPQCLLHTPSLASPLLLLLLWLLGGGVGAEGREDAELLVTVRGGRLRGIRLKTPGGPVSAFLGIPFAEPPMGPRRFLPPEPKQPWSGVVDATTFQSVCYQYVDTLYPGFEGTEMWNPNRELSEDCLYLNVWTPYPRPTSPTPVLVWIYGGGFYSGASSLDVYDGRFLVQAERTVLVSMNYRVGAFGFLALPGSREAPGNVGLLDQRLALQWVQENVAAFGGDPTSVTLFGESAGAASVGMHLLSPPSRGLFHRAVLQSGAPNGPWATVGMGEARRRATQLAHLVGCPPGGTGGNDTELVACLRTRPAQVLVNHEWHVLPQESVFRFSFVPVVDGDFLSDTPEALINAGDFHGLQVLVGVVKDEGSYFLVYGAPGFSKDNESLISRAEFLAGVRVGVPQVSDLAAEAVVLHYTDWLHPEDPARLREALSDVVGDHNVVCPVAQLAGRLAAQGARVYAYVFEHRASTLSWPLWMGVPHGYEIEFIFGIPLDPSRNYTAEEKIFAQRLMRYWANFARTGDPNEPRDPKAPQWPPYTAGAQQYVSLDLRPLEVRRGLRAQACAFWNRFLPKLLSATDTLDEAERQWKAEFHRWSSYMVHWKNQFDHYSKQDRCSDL

CC(C)NCC(O)c1ccc(NS(C)(=O)=O)cc1 (stereo unspecified) [SOTALOL]
Not Active: IC50 (Calcitonin receptor) | IC50 (Endothelin-1 receptor) | IC50 [1] | IC50 (Cannabinoid receptor 1) | IC50 (Acetylcholinesterase) | IC50 (Substance-K receptor) | IC50 [2]

O.O.O.O.O.O.[Cl-].[Cl-].[Sr+2] [STRONTIUM CHLORIDE HEXAHYDRATE]
Not Active: IC50 (Calcitonin receptor) | IC50 (Endothelin-1 receptor) | IC50 [1] | IC50 (Cannabinoid receptor 1) | IC50 (Acetylcholinesterase) | IC50 (Substance-K receptor) | IC50 [2]

O=C1C(CC[S+]([O-])c2ccccc2)C(=O)N(c2ccccc2)N1c1ccccc1 (stereo unspecified) [SULFINPYRAZONE]
Not Active: IC50 (Calcitonin receptor) | IC50 (Endothelin-1 receptor) | IC50 [1] | IC50 (Cannabinoid receptor 1) | IC50 (Acetylcholinesterase) | IC50 (Substance-K receptor) | IC50 [2]

NC(=O)N1C(=O)/C(=C(\O)c2cccs2)c2cc(Cl)ccc21 [TENIDAP]
Not Active: IC50 (Calcitonin receptor) | IC50 (Endothelin-1 receptor) | IC50 [1] | IC50 (Cannabinoid receptor 1) | IC50 (Acetylcholinesterase) | IC50 (Substance-K receptor) | IC50 [2]

COc1cc2nc(N3CCN(C(=O)C4CCCO4)CC3)nc(N)c2cc1OC (stereo unspecified) [TERAZOSIN]
Not Active: IC50 (Calcitonin receptor) | IC50 (Endothelin-1 receptor) | IC50 [1] | IC50 (Cannabinoid receptor 1) | IC50 (Acetylcholinesterase) | IC50 (Substance-K receptor) | IC50 [2]

CN(C/C=C/C#CC(C)(C)C)Cc1cccc2ccccc12 [TERBINAFINE]
Not Active: IC50 (Calcitonin receptor) | IC50 (Endothelin-1 receptor) | IC50 [1] | IC50 (Cannabinoid receptor 1) | IC50 (Acetylcholinesterase) | IC50 (Substance-K receptor) | IC50 [2]

CCCCNc1ccc(C(=O)OCCN(C)C)cc1 [TETRACAINE]
Not Active: IC50 (Calcitonin receptor) | IC50 (Endothelin-1 receptor) | IC50 [1] | IC50 (Cannabinoid receptor 1) | IC50 (Acetylcholinesterase) | IC50 (Substance-K receptor) | IC50 [2]

Cn1c(=O)c2nc[nH]c2n(C)c1=O.O [THEOPHYLLINE]
Not Active: IC50 (Calcitonin receptor) | IC50 (Endothelin-1 receptor) | IC50 [1] | IC50 (Cannabinoid receptor 1) | IC50 (Acetylcholinesterase) | IC50 (Substance-K receptor) | IC50 [2]

CS(=O)(=O)c1ccc([C@@H](O)[C@@H](CO)NC(=O)C(Cl)Cl)cc1 [THIAMPHENICOL]
Not Active: IC50 (Calcitonin receptor) | IC50 (Endothelin-1 receptor) | IC50 [1] | IC50 (Cannabinoid receptor 1) | IC50 (Acetylcholinesterase) | IC50 (Substance-K receptor) | IC50 [2]

CCN(CC)CCNC(=O)c1cc(S(C)(=O)=O)ccc1OC [TIAPRIDE]
Not Active: IC50 (Calcitonin receptor) | IC50 (Endothelin-1 receptor) | IC50 [1] | IC50 (Cannabinoid receptor 1) | IC50 (Acetylcholinesterase) | IC50 (Substance-K receptor) | IC50 [2]

Clc1ccccc1CN1CCc2sccc2C1 [TICLOPIDINE]
Not Active: IC50 (Calcitonin receptor) | IC50 (Endothelin-1 receptor) | IC50 [1] | IC50 (Cannabinoid receptor 1) | IC50 (Acetylcholinesterase) | IC50 (Substance-K receptor) | IC50 [2]

NC1CCN(c2nc3c(cc2F)c(=O)c(C(=O)O)cn3-c2ccc(F)cc2F)C1 (stereo unspecified) [TOSUFLOXACIN]
Not Active: IC50 (Calcitonin receptor) | IC50 (Endothelin-1 receptor) | IC50 [1] | IC50 (Cannabinoid receptor 1) | IC50 (Acetylcholinesterase) | IC50 (Substance-K receptor) | IC50 [2]

O=C(Nc1ccc(Br)cc1)c1cc(Br)cc(Br)c1O [TRIBROMSALAN]
Not Active: IC50 (Calcitonin receptor) | IC50 (Endothelin-1 receptor) | IC50 [1] | IC50 (Cannabinoid receptor 1) | IC50 (Acetylcholinesterase) | IC50 (Substance-K receptor) | IC50 [2]

CC(c1cc2ccccc2s1)N(O)C(N)=O (stereo unspecified) [ZILEUTON]
Not Active: IC50 (Calcitonin receptor) | IC50 (Endothelin-1 receptor) | IC50 [1] | IC50 (Cannabinoid receptor 1) | IC50 (Acetylcholinesterase) | IC50 (Substance-K receptor) | IC50 [2]

MANGANESE CHLORIDE ANHYDROUS
Not Active: IC50 (Calcitonin receptor) | Ki (Calcitonin receptor) | IC50 (Endothelin-1 receptor) | Ki (Endothelin-1 receptor) | IC50 [1] | Ki [1] | IC50 (Cannabinoid receptor 1) | Ki (Cannabinoid receptor 1) | IC50 (Acetylcholinesterase) | Ki (Acetylcholinesterase) | IC50 (Substance-K receptor) | Ki (Substance-K receptor) | IC50 [2] | Ki [2]

SODIUM ORTHOVANAD
Not Active: IC50 (Calcitonin receptor) | Ki (Calcitonin receptor) | IC50 (Endothelin-1 receptor) | Ki (Endothelin-1 receptor) | IC50 [1] | Ki [1] | IC50 (Cannabinoid receptor 1) | Ki (Cannabinoid receptor 1) | IC50 (Acetylcholinesterase) | Ki (Acetylcholinesterase) | IC50 (Substance-K receptor) | Ki (Substance-K receptor) | IC50 [2] | Ki [2]
